The test system of series [1] is DU145 human prostatic cancer cells. Nature of the series: DU145 prostate tumor growth in SCID mice. The series is classed as in vivo. How it is done: DU145 human prostatic cancer cells (1×10^7 cells in 100 μl of PBS) were subcutaneously injected into the right flank of 6-7 week old male SCID mice. After the size of the tumors reached an approximate volume of 50 mm^3, 13 days post tumor cell injection, SEQ ID NO:1 was administered by bolus infusion into the tail vein every other day at 10 mg/kg. Control animals received saline alone for the same period. Treatments lasted for 30 days thereafter. Antitumor activities were estimated by the inhibition of tumor volume, which was measured with a caliper on nine different occasions over 30-day period. Each point represents mean tumor volume calculated from 5 animals per experimental group.
In both experiments, DU145 human prostatic cancer cells (1×10^7 cells in 100 μl of PBS) were subcutaneously injected into the right flank of 6-7 weeks old male SCID mice. After the size of tumor reached an approximate volume of 50 mm^3, 13 (upper panel) or 11 (lower panel) days post tumor cell injection, SEQ ID NO:1 was administered by bolus infusion into the tail vein every other day at 10 mg/kg 15 times (upper panel) or 14 times (lower panel), respectively. Control animals received saline alone for the same period. Antitumor effect of SEQ ID NO:1 was further compared to that of mitoxantrone (novantrone®) alone or in combination. Mitoxantrone was administered intravenously once at the beginning of the treatments at a dose of 2 mg/kg (upper panel) or once a week for four weeks at a reduced dose of 0.8 mg/kg (lower panel). All treatments were stopped at day 42 (upper panel) or 38 (lower panel), respectively. A day after the last treatment, tumors were excised from the animals and their weights were measured.

The test system of series [2] is CB7 Friend retrovirus-induced mouse Erytheroleukemia cells. Description: Survival of SCID mice bearing mouse erythroleukemia (CB7). The settings on record: 10 mg/kg i.v. every second day, stopped at day 71; one mouse died at day 30 and another at day 54; untreated died within 36 days. Format: in vivo. The protocol: In vivo studies were conducted to assess the therapeutic potential of SEQ ID NO:1 in the treatment of mouse Erythroleukemia. CB7 Friend retrovirus-induced mouse Erytheroleukemia cells (5×10^6) collected from subconfluent logarithmically growing cultures were injected i.v. via the tail vein of each animal and disease was allowed to establish for 2 days. SEQ ID NO:1 in normal saline was administered by tail vein injections every second day at a dose of 10 mg/kg. Control animals received saline alone, without oligonucleotide. Treatment with SEQ ID NO:1 was stopped at day 71. Antitumor effects of SEQ ID NO:1 treatment were assessed by the examination of survival of mice (FIG. 19). All mice died as a consequence of tumor progression within 36 days when left untreated. All SEQ ID NO:1 treated animals, on the other hand, survived beyond day 71 except one mouse which died at day 30 and another at day 54.

For series [3] the following is noted: cynomolgus monkey, in vivo.
The conditions of series [4]: monkey, in vivo.
Series [5] has as its system HT-29 human colon cancer cells. Description: HT-29 colon tumor growth in CD-1 nude mice. Format: in vivo. The note with it: for tumor weight / tumor growth: SEQ ID NO:1 10 mg/kg every other day. The protocol:
A. HT-29 human colon cancer cells (3×10^6 cells in 100 μl of PBS) were subcutaneously injected into the right flank of 6-7 weeks old female CD-1 nude mice. After the size of tumor reached an approximate volume of 50 mm^3, 4 days post tumor cell injection, SEQ ID NO:1 was administered by bolus infusion into the tail vein every other day at 10 mg/kg. Control animals received saline alone for the same period. Antitumor effect of SEQ ID NO:1 was further compared to that of mitomycin C alone or that of SEQ ID NO:1 in combination with mitomycin C. Mitomycin C was administered intravenously at days 4, 11 and 18 with a dose of 3.5 mg/kg/week, one hour after the treatments with SEQ ID NO:1. All treatments were stopped at day 22. A day after the last treatment, tumors were excised from the animals and their weights were measured (FIG. 13A). […] The delay in tumor growth achieved with SEQ.
B. HT-29 human colon cancer cells (3×10^6 cells in 100 μl of PBS) were subcutaneously injected into the right flank of 5-6 week old female CD-1 nude mice. After the size of tumor reached an approximate volume of 100 mm^3, 7 days post tumor cell injection, SEQ ID NO:1 was administered by bolus infusion into the tail vein every other day at 10 mg/kg. Control animals received saline alone for the same period. Antitumor effect of SEQ ID NO:1 was further compared to that of CPT-11 alone or that of SEQ ID NO:1 in combination with CPT-11. CPT-11 was administered intraperitoneally for 5 days in a row from day 7-12 with a dose of 20 mg/kg in 100 μl saline. All treatments were stopped at day 32. A day after the last treatment, tumors were excised from the animals and their weights were measured (FIG. 13B).

In series [6] the test system is PC-3 human prostatic cancer cells. Nature of the series: PC-3 prostate tumor growth in SCID mice. Format: in vivo. The settings on record: 10 mg/kg i.v. every other day, 36 days, vs saline. The protocol: PC-3 human prostatic cancer cells (1×10^7 cells in 100 μl of PBS) were subcutaneously injected into the right flank of 6-7 week old male SCID mice. After the tumor size reached an approximate volume of 50 mm^3, 14 days post tumor cell injection, SEQ ID NO:1 was administered by bolus infusion into the tail vein every other day at 10 mg/kg. Control animals received saline alone for the same period. Treatments lasted for 36 days thereafter. Antitumor activities were estimated by the inhibition of tumor volume, which was measured with a caliper on six different occasions over 36-day period. Each point represents mean tumor volume calculated from 5 animals per experimental group.

A short description of series [7]: Repeat dose 14-day toxicity study in monkeys (Part 1). The note with it: monkey.
Series [8] concerns Hep G2 (liver). Nature of the series: Colony forming ability, Hep G2. Format: cell-based, human. The note with it: 0.2 μM antisense oligonucleotide/lipofectin, 4 hours. How it is done: The effect of SEQ ID NO:1 on the colony forming ability were evaluated in the following human tumor cell lines:
Tumor cells were washed in 5 ml of phosphate buffered saline, pH 7.2, prior to 0.2 μM antisense oligonucleotide/lipofectin treatment for 4 hours. The medium was removed and the cells were gently washed with 5 ml of growth medium. The cells were then cultured in growth medium for seven to ten days. Surviving colonies were visualized by methylene blue staining and colonies of 50 or more cells were scored (Choy et al., 1988 and Huang and Wright, 1994). Results are summarized from 4 to 8 trials for each tumor cell line.

Regarding “5′-CTCTAGCGTCTTAAAGCCGA-3′ (CTCTAGCGTCTTAAAGCCGA; chemistry not given here) [SEQ ID NO:1]”, the “inhibition of tumor volume” value in series [1] (SCID mice, 10 mg/kg i.v. every other day, 30 days, vs saline, 10 mg/kg) is “strong inhibitory effects”. Also, the “tumor weight / tumor growth” value in series [1] (upper panel FIG. 2, SEQ ID NO:1 10 mg/kg every other day 15 times, mitoxantrone 2 mg/kg i.v. once, vs saline) is given as “significant delay of tumor growth”. For the same substance, the “delay in tumor growth compared with mitoxantrone alone” value in series [1] (upper panel FIG. 2, mitoxantrone 2 mg/kg once) is on record as “superior to the inhibitory effects observed with mitoxantrone alone”. For the same substance, the survival of mice in series [2] was > 71 days. For the same substance, in series [3], the “APTT values compared to control” value is on record as “significantly longer”, the WBC counts entry was “marked increase”, the appetite result was “significant decrease in appetite noted in the majority of high dose males” and the clinical signs result is given as “Treatment-related reversible clinical signs were limited to a few high dose animals”. Moreover, in series [3], the lymphoid atrophy result is “minimal to moderate lymphoid atrophy”; the ophthalmoscopy entry was “Bilateral retinopathy was noted in one high dose male”; the organ weights entry was “slight increase in relative and absolute kidney weights”; the “red blood cell, hematocrit, and hemoglobin values” is given as “slight to moderate reductions”. Moreover, the summary of effects entry in series [3] (50 mg/kg/day) was “reversible signs of weakness, decreases in body weight and appetite, prolongation of APTT, anemia, thrombocytopenia, and monocytosis”. For the same substance, in series [4], the “levels in the brain” value was “very low or below the limits of detection”; the “tissue concentrations, rank order” value is on record as “kidney>liver>spleen>lymph node (monkey)>lung (monkey)>heart”; the “tissue levels upon discontinuation of treatment” value is recorded as “decreased over time”. For the same substance, in series [5] (FIG. 13A), the “delay in tumor growth compared with mitomycin C alone” value is reported as “superior to the inhibitory effects observed with mitomycin C alone”. In series [5] (FIG. 13A, mitomycin C 3.5 mg/kg/week i.v., stopped day 22), the “tumor weight / tumor growth” value is given as “significant delay of tumor growth”. Besides, the “tumor weight / tumor growth” value in series [5] (FIG. 13B, CPT-11 20 mg/kg i.p. 5 days, stopped day 32) is on record as “significant delay of tumor growth”. Further, in series [6], the “inhibition of tumor volume” value is on record as “strong inhibitory effects”. The “deaths, clinical signs, appetite, ophthalmology, cardiology, hematology, organ weights” value in series [7] (14-day infusion up to 40 mg/kg/day) is given as “no deaths, no treatment-related clinical signs, effects on appetite, ophthalmology effects, cardiology, hematology effects, or changes in organ weights”. Moreover, the toxicity result in series [7] (continuously for 14 days at 10 mg/kg/day (123 mg/m^2/day)) was “Minimal and reversible toxicity”. In addition, the “inhibition in colony forming ability” value in series [8] is recorded as “greater than 60%”.
